Measurements as given in patent publication US6403623B1, “Heterocyclic antituberculosis agents” (Unuversity of Notre Dame du Lac, priority 1999, dated 2002).

Tested on: M. tuberculosis H37R
Assay: microbe, parasite or virus in culture
Assay type: cell-based
Conditions: Mycobacterium tuberculosis, in vitro, concentration of 12.5 μg/mL, read-out: inhibition of the growth of M. tuberculosis H37R

Structure (SMILES): O=C(OCc1ccccc1)[C@@H]1COC(c2ccccc2OCc2ccccc2)=N1 [Example 1, (S)-Benzyl 2-[2-(Benzyloxy)phenyl]-2-oxazoline-4-carboxylate]
- inhibition at 12.5 µg/mL: 98%
